Assay results published in paper PMC8989888, “Development of optimized drug-like small molecule inhibitors of the SARS-CoV-2 3CL protease for treatment of COVID-19” (Nature Communications, 2022).
Values joined by “and” are separate entries in the source; they are usually repeats but may differ in a detail not shown here. Identical values can stand only once. Like-named read-outs stand apart in the source and are kept apart here.

What was measured:
SARS-CoV-2 3CL protease [1] = biological target: T1, SARS-CoV-2 3CL protease (Severe acute respiratory syndrome coronavirus 2, UniProt P0DTD1); assay: biochemical
SARS-CoV-2 3CL protease [2] = biological target: T1, SARS-CoV-2 3CL protease; assay: biochemical; settings: for kinact/KI: read-out: SARS-CoV-2 3CLpro kinact/KI
SARS-CoV-2 = assay: microbe, parasite or virus in culture; assay type: cell-based; settings: for EC50: Severe acute respiratory syndrome coronavirus 2, 24 h, read-out: SARS-CoV-2 Huh-7ACE2 EC50
[3] = 0.2 µM protease with 50 µM tested compound, replicates
[4] = 200 nM protease, read-out: IC50
[5] = 20 nM protease, read-out: SARS-CoV-2 3CLpro IC50
[6] = Concentration of inhibitor (nM) 0.19382
[7] = Concentration of inhibitor (nM) 0.49485
[8] = Concentration of inhibitor (nM) 0.79588
[9] = Concentration of inhibitor (nM) 1.09691
[10] = Concentration of inhibitor (nM) 1.39794
[11] = Concentration of inhibitor (nM) 1.69897
[12] = Concentration of inhibitor (nM) 2
[13] = Concentration of inhibitor (nM) 2.30103
[14] = Concentration of inhibitor (nM) -0.10721
[15] = Concentration of inhibitor (nM) -0.40824
[16] = Concentration of inhibitor (nM) 2.60206

COc1ccc(CNS(=O)(=O)c2cccnc2)cc1 [AZVIII-44H]
Normalized SARS-CoV-2 3CL protease activity (SARS-CoV-2 3CL protease [1]; [3]): 0.9803 and 0.9852 and 1.015 | IC50 (SARS-CoV-2 3CL protease [1]; [4]): > 50000 nM

O=S(=O)(NCc1ccncn1)c1cccnc1 [AZVIII-49C]
Normalized SARS-CoV-2 3CL protease activity (SARS-CoV-2 3CL protease [1]; [3]): 1.015 and 1.0173 and 1.005 | IC50 (SARS-CoV-2 3CL protease [1]; [4]): > 50000 nM

O=S(=O)(NCc1ccncn1)c1ccccc1 [AZVIII-49F]
Normalized SARS-CoV-2 3CL protease activity (SARS-CoV-2 3CL protease [1]; [3]): 1.058 and 1.081 and 1.099 | IC50 (SARS-CoV-2 3CL protease [1]; [4]): > 50000 nM

O=CCN(Cc1ccccc1)S(=O)(=O)c1ccccc1 [AZVIII-57D]
Normalized SARS-CoV-2 3CL protease activity (SARS-CoV-2 3CL protease [1]; [3]): 1.196 and 1.186 and 0.9817 | IC50 (SARS-CoV-2 3CL protease [1]; [4]): > 50000 nM

COc1ccc(S(=O)(=O)N(CC=O)Cc2ccccc2)cc1 [AZVIII-57G]
Normalized SARS-CoV-2 3CL protease activity (SARS-CoV-2 3CL protease [1]; [3]): 1.117 (2×) and 1.175 (2×) and 1.168 (2×) | IC50 (SARS-CoV-2 3CL protease [1]; [4]): > 50000 nM

O=C(N[C@@H](CC1CC1)C(=O)N[C@@H](C[C@@H]1CCNC1=O)C(O)S(=O)(=O)O)OCc1ccccc1 (stereo partly shown) [NK01-14]
IC50 (SARS-CoV-2 3CL protease [1]; [5]): 22 nM | normalized activity, dose-response curve (Figure S16) (SARS-CoV-2 3CL protease [1]; [6]): 88.3287 and 88.0525 | normalized activity, dose-response curve (Figure S16) (SARS-CoV-2 3CL protease [1]; [7]): 79.1436 and 83.9088 | normalized activity, dose-response curve (Figure S16) (SARS-CoV-2 3CL protease [1]; [8]): 76.0359 and 72.2376 | normalized activity, dose-response curve (Figure S16) (SARS-CoV-2 3CL protease [1]; [9]): 63.3978 and 55.1105 | normalized activity, dose-response curve (Figure S16) (SARS-CoV-2 3CL protease [1]; [10]): 56.2155 and 53.3149 | normalized activity, dose-response curve (Figure S16) (SARS-CoV-2 3CL protease [1]; [11]): 37.1547 and 46.616 | normalized activity, dose-response curve (Figure S16) (SARS-CoV-2 3CL protease [1]; [12]): 24.2403 and 25.2762 | normalized activity, dose-response curve (Figure S16) (SARS-CoV-2 3CL protease [1]; [13]): 7.666 and 9.392 | normalized activity, dose-response curve (Figure S16) (SARS-CoV-2 3CL protease [1]; [14]): 96.8923 and 94.268 | normalized activity, dose-response curve (Figure S16) (SARS-CoV-2 3CL protease [1]; [15]): 109.254 and 100 | observed inactivation rate vs compound concentration (Figure S19, replicate values) (SARS-CoV-2 3CL protease [2]): 0.0144 and -0.00118 and 0.0245 and 0.0068 and 0.0252 and 0.0272 and 0.0287 and 0.0225 and 0.0192 and -0.00612 and 0.0023 and 0.0187 | kinact/KI (SARS-CoV-2 3CL protease [2]): 71700 M⁻¹ s⁻¹ | inhibition of SARS-CoV-2 (Figure s17b dose-response, replicate values) (SARS-CoV-2): 107.44 and 106.681 and 107.657 and 104.164 and 95.5823 and 98.4941 and 57.1014 and 42.1437 and 64.5278 and 21.8135 and 20.6648 and 21.9136 and 20.2988 and 22.5837 and -3.217 and 20.0515 and 23.307 and 7.747 and 3.643 and 5.208 and 12.2626 | EC50 (SARS-CoV-2): 26 nM

CC(C)C[C@H](NC(=O)OCc1cc(F)c(F)cc1F)C(=O)N[C@@H](C[C@@H]1CCNC1=O)C(O)S(=O)(=O)O (stereo partly shown) [NK01-48]
IC50 (SARS-CoV-2 3CL protease [1]; [5]): 92 nM | normalized activity, dose-response curve (Figure S16) (SARS-CoV-2 3CL protease [1]; [6]): 99.5986 and 99.2546 | normalized activity, dose-response curve (Figure S16) (SARS-CoV-2 3CL protease [1]; [7]): 84.289 and 78.0963 | normalized activity, dose-response curve (Figure S16) (SARS-CoV-2 3CL protease [1]; [8]): 92.7179 and 89.3922 | normalized activity, dose-response curve (Figure S16) (SARS-CoV-2 3CL protease [1]; [9]): 76.6628 and 70.7569 | normalized activity, dose-response curve (Figure S16) (SARS-CoV-2 3CL protease [1]; [10]): 79.2431 and 69.9541 | normalized activity, dose-response curve (Figure S16) (SARS-CoV-2 3CL protease [1]; [11]): 62.156 and 55.5619 | normalized activity, dose-response curve (Figure S16) (SARS-CoV-2 3CL protease [1]; [12]): 48.3945 and 50.2294 | normalized activity, dose-response curve (Figure S16) (SARS-CoV-2 3CL protease [1]; [13]): 33.7729 and 21.5023 | normalized activity, dose-response curve (Figure S16) (SARS-CoV-2 3CL protease [1]; [16]): 18.3486 and 12.328 | normalized activity, dose-response curve (Figure S16) (SARS-CoV-2 3CL protease [1]; [14]): 97.1904 and 78.0963 | normalized activity, dose-response curve (Figure S16) (SARS-CoV-2 3CL protease [1]; [15]): 97.1904 and 100 | observed inactivation rate vs compound concentration (Figure S19, replicate values) (SARS-CoV-2 3CL protease [2]): 0.0181 and 0.0442 and 0.0252 and 0.0284 and 0.021 and 0.0128 and 0.0148 and 0.0158 and 0.0136 and 0.0037 and 0.0168 and 0.02 and 0.0021 and 0.0084 and 0.0011 | kinact/KI (SARS-CoV-2 3CL protease [2]): 5000 M⁻¹ s⁻¹ | inhibition of SARS-CoV-2 (Figure s17b dose-response, replicate values) (SARS-CoV-2): 125.494 and 126.964 and 86.3185 and 118.605 and 134.4 and 122.016 and 84.6265 and 61.89 and 119.128 and 54.4703 and 35.4275 and 15.416 and 32.4697 and 30.0193 and 47.7694 and 0.4554 and -12.5084 and -5.078 and 34.0338 and 10.0006 and 6.443 | EC50 (SARS-CoV-2): 15 nM

O=C(N[C@@H](CC1CC1)C(=O)N[C@@H](C[C@@H]1CCNC1=O)C(O)S(=O)(=O)O)OCc1cccc(Cl)c1 (stereo partly shown) [NK01-57]
IC50 (SARS-CoV-2 3CL protease [1]; [5]): 13 nM | normalized activity, dose-response curve (Figure S16) (SARS-CoV-2 3CL protease [1]; [6]): 95.6172 and 86.9248 | normalized activity, dose-response curve (Figure S16) (SARS-CoV-2 3CL protease [1]; [7]): 85.9021 and 78.3053 | normalized activity, dose-response curve (Figure S16) (SARS-CoV-2 3CL protease [1]; [8]): 79.0358 and 66.0336 | normalized activity, dose-response curve (Figure S16) (SARS-CoV-2 3CL protease [1]; [9]): 62.3083 and 48.2104 | normalized activity, dose-response curve (Figure S16) (SARS-CoV-2 3CL protease [1]; [10]): 43.3163 and 27.8305 | normalized activity, dose-response curve (Figure S16) (SARS-CoV-2 3CL protease [1]; [11]): 26.2235 and 13.9518 | normalized activity, dose-response curve (Figure S16) (SARS-CoV-2 3CL protease [1]; [13]): 6.939 and 9.715 | normalized activity, dose-response curve (Figure S16) (SARS-CoV-2 3CL protease [1]; [16]): 9.934 and 9.2038 | normalized activity, dose-response curve (Figure S16) (SARS-CoV-2 3CL protease [1]; [14]): 107.889 and 102.703 | normalized activity, dose-response curve (Figure S16) (SARS-CoV-2 3CL protease [1]; [15]): 100 and 101.315 | observed inactivation rate vs compound concentration (Figure S19, replicate values) (SARS-CoV-2 3CL protease [2]): 0.0175 and 0.0065 and 0.0112 and -0.01176 and 0.0254 and -0.00163 and 0.0094 and -0.00166 and -0.05051 and -0.00614 and -0.01353 and -0.00565 and -0.00112 and -0.0108 and -0.00266 and -0.00784 and 0.0038 and -0.0081 and -0.00313 and -0.00276 and 0.0019 | inhibition of SARS-CoV-2 (Figure s17b dose-response, replicate values) (SARS-CoV-2): 104.54 and 74.4176 and 64.8123 and 55.4072 and 79.8077 and 89.5745 and 61.4462 and 18.0183 and 12.437 and -10.4634 and -16.0501 and 3.693 and 24.8584 and -12.4097 and 6.795 and 29.8589 and -3.6952 and 33.5228 and 9.378 and -5.3463 and 36.5619 | EC50 (SARS-CoV-2): 92 nM

CSc1ncccc1C#N [NT-1-21]
Normalized SARS-CoV-2 3CL protease activity (SARS-CoV-2 3CL protease [1]; [3]): 1.059 and 1.079 and 0.9766

CS(=O)(=O)c1ncccc1C#N [NT-1-24]
Normalized SARS-CoV-2 3CL protease activity (SARS-CoV-2 3CL protease [1]; [3]): 0.9913 and 0.611 and 0.8892

CS(=O)(=O)c1nc(C(F)(F)F)ccc1C#N [NT-1-32]
Normalized SARS-CoV-2 3CL protease activity (SARS-CoV-2 3CL protease [1]): 0.9191 and 0.9056 and 0.7525
